Measured values published in patent US10981858B2, “Dendrimer and formulations thereof” (Priostar Pty Ltd, priority 2015, dated 2021).
“Also recorded” adds a separate entry of the source. Blank lines part the entries; values can stand above or below the compound they belong to.

Assays:
Format in all cases: physicochemical
[1] = 2,4-D/dendrimer formulation stability study (crystallisation at 0° C.); conditions: for Crystallisation After 7 Days at 0° C. With Seeding: 2,4-D Amine 625 g/l seeded with 2,4-D Amine salt; for Crystallisation After 7 Days at 0° C.: without seeding
Procedure: 20 ml of 2,4-D Amine(2,4-D 625 g/l market sample, Rygel, Adama Australia) was transferred to 25 ml clear vials and dendrimer added (with or without 30% Dithethylene Glycol). Caps were tightened to ensure no moisture entered the vials. Formulations were placed in a freezer at 0° C. […] In a related experiment, formulations were prepared with seeding with 2,4-D Amine salt (Shanghai Biochemical Sci. Ltd., purity 98 in order to hasten rate of crystallisation. The results are provided in Table 2.

[2] = 2,4-D/dendrimer hard water testing (clarity, sedimentation); conditions: 30° C.; for Appearance at Addition / Appearance/Sedimentation After 24 Hrs.: 2,4-D Amine in 342 ppm hard water; for Appearance of 2,4-D solutions in hard water: all concentrations tested (from 1.4 to 10%), 342 ppm hard water, 24 hours
Procedure: 342 ppm hard water was prepared as per CIPAC method MT18. The hard water was heated to 30° C. […]

[3] = Dynamic viscosity of aqueous dendrimer solution (Brookfield); conditions: aqueous solution 7% dendrimer and 3% DEG, ambient temperature, spindle no. 63 at 50 rpm
Procedure: 50 g aqueous solution of dendrimer (7% dendrimer and 3% DEG) was prepared in deionized water in a beaker, and subjected to dynamic viscosity measurement using Brookfield viscometer at ambient temperature. Viscosity studies were conducted using spindle no. 63 at 50 rpm. It was observed that viscosity of Compound-1 solution was 1.8 cps and Compound-4 solution was 0.6 cps.

[4] = Tebuconazole 600 SC hard water testing: suspensibility, column thinning, sedimentation; conditions: 2 ml Tebuconazole 600 SC, dendrimer 0.7%, in 98 ml 342 ppm hard water, 30° C., 24 hours
Procedure: (§1) Formulations were prepared by mixing water, surfactant, dispersing agent, wetting agent and antifoam together then gradually adding active. High shear mix for 20-30 minutes to disperse formulation ingredients in water before adding the active and mixing until homogeneous. The mixture was milled on a Dyno bead mill (1 m/s) with 0.4-0.6 mm beads at max. 40° C. until particle size was <4 um. Dendrimer compound (in DEG) was added and stirred for 20 minutes. Thickener and antimicrobial was then added and stirred for 20 minutes. Formulations were deaerated by sonication.
98 ml of 342 ppm hard water (prepared as per CIPAC method MT18) was heated to 30° C. before adding 2 ml. of Tebuconazole 600 SC formulation. Temperature was maintained at 30° C. for 24 hours and formulation characteristics were studied for suspension stability, wetting, column thinning/separation and sedimentation.

[5] = Solubilization of water insoluble surfactant Ethoxylated Lauryl alcohol-3 M in LA-9 solution; conditions: 50 g, until hazy
Procedure: 5% w/w aqueous solution of Ethoxylated Lauryl alcohol-9 mole (water soluble surfactant) was prepared in Deionized water (2.5 g in 47.5 ml). Dendrimer compounds 1 and 4 were diluted 70:30 w/w in Diethylene glycol. The 5% Ethoxylated Lauryl alcohol-9 M (LA-9) solution was combined with dendrimer DEG solution at 90:10, 80:20 and 70:30 w/w (total weight 50 g).
Ethoxylated lauryl alcohol-3 mole (water insoluble surfactant) was added dropwise, while stirring, to the 50 g LA-9 solution (with or without dendrimer), until it became hazy. The weight of Ethoxylated lauryl alcohol-3 M added was recorded.

[6] = Solubilization of Methylated seed oil (MSO) in aqueous LA-9 solution; conditions: 50 g, until hazy
Procedure: 10% aqueous solution of Ethoxylated Lauryl alcohol-9 mole (water soluble surfactant) was prepared in Deionized water (5 g in 45 ml). Dendrimer compounds 1 and 4 were prepared 70:30 w/w in Diethylene glycol (DEG). The 10% Ethoxylated Lauryl alcohol-9 M (LA-9) solution was combined with dendrimer DEG solution at 80:20 and 60:40 w/w (total weight of 50 g).
Methylated seed oil (MSO) (STEPOSOL-ROE-W, canola oil methyl ester, Stepan) was added dropwise under stirring to the 10% LA-9 solution (with or without dendimers), until the solution became hazy. Weight of MSO added was recorded.

[7] = Tebuconazole 600 SC wetting study in hard water; conditions: one drop Tebuconazole 600 SC, dendrimer 0.7%, in 342 ppm hard water at 30° C.
Procedure: as §1
Wetting studies were conducted by placing one drop of Tebuconazole 600 SC formulation in 342 ppm hard water at 30° C. and recording the time when all the formulation particles were wet and dispersed in water.

[8] = Additional tebuconazole formulations: suspension stability and viscosity; conditions: additional tebuconazole formulation, 0.8% additive
Text: Additional formulations were developed, and formulation characteristics were studied for suspension stability, and viscosity.

[9] = Water value of dendrimers with solvent (Solvesso 200); conditions: 50 g aqueous solution, 7% dendrimer and 3% DEG; until hazy
Procedure: 50 g Aqueous solution of Dendrimer were prepared containing 7% dendrimer and 3% Diethylene glycol (DEG) by weight. Solvesso 200 (C10-13 aromatic hydrocarbon solvent) was added dropwise under stirring until the solution became hazy. Weight of Solvesso added was recorded.

[10] = Tebuconazole 600 SC formulation viscosity (Table 8); conditions: dendrimer 0.7%
Procedure: as §1

Cloud point studies = conditions: 1 gm. dendrimer solution (70:30 w/w dendrimer:Diethylene Glycol) in 99 gm. of 10% NaOH solution
Procedure: 1 gm. of dendrimer solution (70:30 w/w dendrimer [Compound 1 or Compound 4]:Diethylene Glycol) was dissolved in 99 gm. of 10% NaOH solution in Deionized water and heated until hazy. Temperature of the solution was measured using calibrated thermometer.

[11] = 2,4-D Amine 625 g/l, dendrimer 2%
[12] = 2,4-D Amine 625 g/l, dendrimer 5%
[13] = 2,4-D Amine 625 g/l, dendrimer 10%

Crystallisation After 7 Days at 0° C. With Seeding ([1]; dendrimer 1.4%, Diethylene Glycol 0.6%): Crystallised | Crystallisation After 7 Days at 0° C. With Seeding ([1]; dendrimer 3.5%, Diethylene Glycol 1.5%): Crystallised | Crystallisation After 7 Days at 0° C. With Seeding ([1]; dendrimer 7%, Diethylene Glycol 3%): Crystallised | Crystallisation at 0° C. with seeding ([1]; 2,4-D Amine 625 g/l, all the dosages of dendrimer): crystallised | Crystallisation After 14 Days at 0° C. ([1]; 2,4-D Amine 625 g/l, dendrimer 1.4%, Diethylene Glycol 0.6%): Crystallised | Crystallisation After 14 Days at 0° C. [1, 11]: Crystallised | Crystallisation After 14 Days at 0° C. ([1]; 2,4-D Amine 625 g/l, dendrimer 3.5%, Diethylene Glycol 1.5%): Crystallised | Crystallisation After 14 Days at 0° C. [1, 12]: Crystallised | Crystallisation After 14 Days at 0° C. ([1]; 2,4-D Amine 625 g/l, dendrimer 7%, Diethylene Glycol 3%): Crystallised | Crystallisation After 14 Days at 0° C. [1, 13]: Crystallised | Crystallisation After 7 Days at 0° C. [1, 13]: No | Appearance at Addition ([2]; dendrimer 1.4% (w/w), 0.6% DEG): Clear | Appearance/Sedimentation After 24 Hrs. ([2]; dendrimer 1.4% (w/w), 0.6% DEG): Hazy with sediment | Appearance at Addition ([2]; dendrimer 2% (w/w)): Clear | Appearance/Sedimentation After 24 Hrs. ([2]; dendrimer 2% (w/w)): Hazy with sediment | Appearance at Addition ([2]; dendrimer 3.5% (w/w), 1.5% DEG): Clear | Appearance/Sedimentation After 24 Hrs. ([2]; dendrimer 3.5% (w/w), 1.5% DEG): Hazy with sediment | Appearance at Addition ([2]; dendrimer 5% (w/w)): Clear | Appearance/Sedimentation After 24 Hrs. ([2]; dendrimer 5% (w/w)): Hazy with sediment | Appearance at Addition ([2]; dendrimer 7% (w/w), 3% DEG): Clear | Appearance/Sedimentation After 24 Hrs. ([2]; dendrimer 7% (w/w), 3% DEG): Hazy with sediment | Appearance at Addition ([2]; dendrimer 10% (w/w)): Clear | Appearance/Sedimentation After 24 Hrs. ([2]; dendrimer 10% (w/w)): Hazy with sediment | Appearance of 2,4-D solutions in hard water [2]: hazy solutions with sediment | Dynamic viscosity [3]: 1.8 cps | Suspensibility: Sediment [4]: 0.5 mL⁻¹ | Suspensibility: nature of sediment [4]: Compact | Suspensibility: Column Thinning ([4]; top thinning): 10 ml. Top | Quantity LA-3 added to LA-9 solution ([5]; ratio 5% LA-9 solution:dendrimer/DEG solution 70:30 (w/w), 21% dendrimer (w/w)): 1.96 g | Quantity LA-3 added to LA-9 solution ([5]; ratio 5% LA-9 solution:dendrimer/DEG solution 80:20 (w/w), 14% dendrimer (w/w)): 2.00 g | Quantity LA-3 added to LA-9 solution ([5]; ratio 5% LA-9 solution:dendrimer/DEG solution 90:10 (w/w), 7% dendrimer (w/w)): 1.83 g | Quantity MSO added to 10% LA-9 solution ([6]; ratio LA-9 solution:dendrimer/DEG solution 60:40 (w/w), 28% dendrimer (w/w)): 0.56 g | Quantity MSO added to 10% LA-9 solution ([6]; ratio LA-9 solution:dendrimer/DEG solution 80:20 (w/w), 14% dendrimer (w/w)): 0.54 g | Wetting [7]: 33.3 s | Observation: consistency [8]: Pseudoplastic liquid, | Observation: sediment at 0 C. ([8]; 0 C.): no sediment at 0 C. | Viscosity (cP) 0 C. ([8]; 0 C.): 2844 cP | Viscosity (cP) RT ([8]; RT): 2566 cP | Quantity Solvesso 200 added [9]: 1.31 g | Viscosity 0 C. ([10]; 0 C.): 786 | Viscosity 54 C. ([10]; 54 C.): 743 | Viscosity RT ([10]; RT): 720 cP | Cloud point (temperature at which solution turned hazy) (Cloud point studies): 65 °C
SMILES: CCC(COCC(O)CN(CCO)CCO)(COCC(O)CN(CCO)CCO)COCC(O)CN(CCO)CCO (stereo not shown) [Compound 1, 9-((3-(bis(2-hydroxyethyl)amino)-2-hydroxypropoxy)methyl)-9-ethyl-3,15-bis(2-hydroxyethyl)-7,11-dioxa-3,15-diazaheptadecane-1,5,13,17-tetraol, reference compound]
Crystallisation After 7 Days at 0° C. [1, 11]: resulted in crystallisation; also recorded: Crystallised | Crystallisation After 7 Days at 0° C. [1, 12]: resulted in crystallisation; also recorded: Crystallised

Appearance at Addition ([2]; dendrimer 2% (w/w)): Clear | Appearance/Sedimentation After 24 Hrs. ([2]; dendrimer 2% (w/w)): Hazy with sediment | Appearance at Addition ([2]; dendrimer 5% (w/w)): Clear | Appearance/Sedimentation After 24 Hrs. ([2]; dendrimer 5% (w/w)): Hazy with sediment | Appearance at Addition ([2]; dendrimer 10% (w/w)): Clear | Appearance/Sedimentation After 24 Hrs. ([2]; dendrimer 10% (w/w)): Hazy with sediment | Appearance of 2,4-D solutions in hard water [2]: hazy solutions with sediment
SMILES: CCC(COCC(O)CN(CCOC)CCOC)(COCC(O)CN(CCOC)CCOC)COCC(O)CN(CCOC)CCOC (stereo not shown) [Compound 8, 11-((3-(bis(2-methoxyethyl)amino)-2-hydroxypropoxy)methyl)-11-ethyl-5,17-bis(2-methoxyethyl)-2,9,13,20-tetraoxa-5,17-diazahenicosane-7,15-diol]
